Laboratory results taken from PMC12186263, “Molecular Basis for Peptide Nitration by a Novel Cytochrome P450 Enzyme in RiPP Biosynthesis” (ACS Catalysis, 2025).
Square brackets hold non-standard residues; d marks the D form. Ends that are not written are not given here. Peptide text beside a SMILES is read from it. Nle = CCCC[C@H](N)C(=O)O

Assays:
[1] = target: T1, RufO (Streptomyces atratus, UniProt A0A224AU14); test: Isothermal titration calorimetry, peptide into RufO; assay type: binding; settings: ITC, 20 °C, 190 μM RufO, 50 mM Tris-HCl, 100 mM NaCl pH 7.5, one set of sites, control subtracted
T1 construct: made in house
T1 sequence (A0A224AU14 1-394): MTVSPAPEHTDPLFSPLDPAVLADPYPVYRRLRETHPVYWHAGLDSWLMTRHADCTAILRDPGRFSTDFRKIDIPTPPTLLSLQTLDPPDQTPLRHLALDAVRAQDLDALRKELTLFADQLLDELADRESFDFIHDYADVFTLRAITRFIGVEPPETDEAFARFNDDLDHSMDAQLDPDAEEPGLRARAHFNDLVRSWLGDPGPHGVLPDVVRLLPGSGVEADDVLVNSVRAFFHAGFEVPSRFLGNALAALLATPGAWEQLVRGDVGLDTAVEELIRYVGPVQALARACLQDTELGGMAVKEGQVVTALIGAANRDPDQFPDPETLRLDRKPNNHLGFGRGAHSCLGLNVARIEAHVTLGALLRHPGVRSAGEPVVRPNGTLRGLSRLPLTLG
Protocol: ITC experiments were conducted at 20 °C using a MicroCal PEAQ-ITC instrument (Malvern Panalytical). RufO was prepared in a buffer containing 50 mM Tris-HCl and 100 mM NaCl at pH 7.5. The reference cell was filled with water. Each experiment involved 190 μM RufO in the sample cell, titrated with either 2.5 mM MRYLH or 2.8 mM Nle-RYLH in the syringe. Control experiments replaced the protein in the cell with buffer. The titration protocol included an initial 0.4 μL injection (excluded from analysis), followed by 19 injections of 2 μL at 2.5 min intervals. The cell was continuously stirred at 750 rpm. Data analysis was conducted using MicroCal PEAQ-ITC Analysis Software, with heats of dilution determined from the plateau region of the thermograms and subtracted from each integrated peak. All titrations are baseline corrected. The final integrated enthalpic changes were obtained by subtracting the controls from the protein-peptide titrations and fitted to a “one set of sites” binding model.

[2] = target: T1, RufO; test: X-band cw EPR of RufO with peptide; assay type: binding; settings: 100 μM RufO, 2 mM peptide, 10 K; double-integrated intensities
Protocol: 3 Spectroscopic characterization of the RufO heme center with and without peptide substrates. (A) X-band continuous wave EPR spectra of RufO (black), RufO with 2 mM MRYLH (red), and RufO with 2 mM Nle-RYLH (blue), measured at 10 K and 1 mW microwave power. The minor species marked by asterisks likely arise from conformational heterogeneity of the heme center or a freezing artifact. (B) rR spectra of RufO (top), RufO with 2 mM MRYLH (middle), and RufO with 2 mM Nle-RYLH (bottom). The spectra were collected using a 405 nm excitation laser at 5 mW. (C) rR spectra of CO adducts of ferrous RufO (top) and ferrous RufO with 2 mM Nle-RYLH (bottom). Spectra were collected using a 442 nm excitation line at 1 mW. (D) Backbonding correlations between v(Fe–C) and v(C–O) stretching frequencies for various CYPs in the absence (squares) and presence (circles) of ligands. […]
EPR samples were prepared by mixing 100 μM RufO in the same buffer with 5% glycerol and either 2 mM MRYLH or Nle-RYLH, followed by flash-freezing in 4 mm quartz EPR tubes. […] Each sample was measured at 9.35 GHz microwave frequency at 10 K using 1 mW microwave power. All spectra were recorded with four averaged scans using an ER4119HS resonator at a modulation frequency of 100 kHz and a modulation amplitude of 0.4 mT. The conversion rate of the low-spin species was determined by comparing the double-integrated intensities of the signals. […]

[3] = target: T1, RufO; test: RufO nitration activity assay (HPLC); assay type: biochemical; settings: 20 μM RufO, 1 mM peptide, SpFdX/SpFdR, pH 8.0, 25 °C, 30 min; highest rate set as 100%; triplicate
Protocol: Each assay was performed in triplicate and contained 20 μM CYP enzyme, 80 μM ferredoxin, 40 μM reductase, 1 mM substrate, 1 mM NADH/NADPH, 1 mM DEA NONOate (≥98%, Cayman Chemical), and 132 μL O2-saturated buffer (50 mM Tris, 100 mM NaCl at pH 8.0, bubbled for 30 min) for a final reaction volume of 200 μL. Reactions with CPR in place of the ferredoxin/reductase system contained 40 μM CPR. Reactions were incubated at 25 °C with shaking at 300 rpm for 30 min, then filtered using a 10 kDa cutoff centrifugal filter (Millipore) and analyzed by HPLC. Filtrate was analyzed on an InertSustain C18 column (5 μm particle size, 4.6 mm × 100 mm, GL Sciences Inc.) on a Thermo Fisher Scientific Ultimate-3000SD HPLC rapid separation system equipped with a photodiode array detector. The flow rate was set at 1 mL/min. For RufO assays, solvent A was water and solvent B was 90% acetonitrile (ACN) in water with 0.1% trifluoroacetic acid (TFA). A gradient of 0–70% solvent B was applied over 15 min. For collection of peptide product peaks for mass spectrometry analysis, TFA in solvent B was replaced with formic acid (FA). The method for TxtE assays used water with 0.1% FA as solvent A and ACN with 0.1% FA as solvent B. A gradient of 0–20% solvent B was applied over 10 min, followed by a 5 min hold at 20% solvent B. All presented traces were monitored at an absorbance wavelength of 280 nm. […]

[4] = target: T2, TxtE (Streptomyces scabiei, UniProt C9ZDC6); test: ITC of Trp titration to TxtE; assay type: binding; settings: 2 mM Trp into 50 μM TxtE
T2 sequence (C9ZDC6 1-406): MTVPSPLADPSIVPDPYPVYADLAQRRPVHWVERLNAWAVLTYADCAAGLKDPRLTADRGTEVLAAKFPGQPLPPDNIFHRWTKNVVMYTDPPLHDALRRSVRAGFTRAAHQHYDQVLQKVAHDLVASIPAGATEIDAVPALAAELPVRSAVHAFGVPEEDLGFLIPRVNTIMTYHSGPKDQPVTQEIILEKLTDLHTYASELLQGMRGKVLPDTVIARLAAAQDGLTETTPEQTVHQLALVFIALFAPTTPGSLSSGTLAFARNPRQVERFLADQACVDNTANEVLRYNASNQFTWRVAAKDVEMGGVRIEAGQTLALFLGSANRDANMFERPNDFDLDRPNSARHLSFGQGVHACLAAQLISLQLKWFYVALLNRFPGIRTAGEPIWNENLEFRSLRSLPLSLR
Protocol: (§1) Figure S1. Spectroscopic and ITC analysis of substrate binding in TxtE
(§2) (A) UV-vis spectra of 2 μM TxtE in the absence (black trace) and presence (red trace) of 0.5 mM
(§3) Trp; (B) ITC experiment of Trp titration to TxtE.
(§4) power observed with successive injections of 2 mM Trp to 50 μM TxtE after baseline correction.
(§5) consistent with a single binding site (red line). (C) Resonance Raman spectra of 100 μM TxtE in
(§6) the absence (top) and presence (bottom) of 1 mM Trp.
(§7) (1 picture or pasted object on this page, not shown here)

[5] = target: T2, TxtE; test: UV-vis of TxtE with Trp; assay type: binding; settings: 2 μM TxtE, 0.5 mM Trp
Protocol: as §1, §2
Trp; (B) ITC experiment of Trp titration to TxtE. […]
as §7

[6] = target: T2, TxtE; test: Resonance Raman of TxtE with Trp; assay type: binding; settings: 100 μM TxtE, 1 mM Trp
Protocol: All rR measurements were carried out in 180° backscattering geometry, with scattered light focused by a cylindrical lens (Nikon). The beam passed through a 405 nm notch filter (Thorlabs) for ferric samples or a 442 nm notch filter (Iridian) for ferrous-CO samples, before entering an iHR550 spectrometer (Horiba Scientific). The spectrometer was configured with a 120-μm entrance slit and a 1200 grooves/mm grating (estimated spectral resolution of 10 cm^–1) for ferric samples, or a 350-μm slit and 2400 grooves/mm grating (estimated spectral resolution of 10 cm^–1) for ferrous-CO samples, with detection by a liquid nitrogen-cooled Symphony CCD detector (Horiba Scientific). The accuracy of absolute frequencies is about ±1 cm^–1 based on duplicated measurements. Measurements were conducted at room temperature in 5 mm NMR tubes constantly spinning to prevent local heating and protein degradation. The acquisition times for ferric and CO-bound samples were set to 40 min and 2 h, respectively. UV–vis spectra were recorded before and after the measurements to ensure no photodegradation occurred. rR spectra were calibrated with fenchone (for all samples) and acetone-d 6 (for ferrous-CO samples in high-frequency regions) and processed using GRAMS/AI software (ThermoFisher).
as §1, §2, §3, §4, §5, §6, §7

[7] = system: ferrous RufO; test: Stopped-flow transient kinetics of O2 and •NO binding to ferrous RufO; settings: 4 °C; for association rate constant k1: 3.3 μM ferrous RufO, pH 8.0, linear fit
Protocol: 5 Transient kinetics of ferrous RufO binding to O2 and ^•NO. Spectral changes following the rapid mixing of 3.3 μM ferrous RufO bound to MRYLH with (A) 18 μM O2 and (C) 70 μM ^•NO over 0.2 s. The black-to-red spectral transitions represent the formation of (A) a ferric-superoxo intermediate and (C) a ferrous-nitrosyl complex. Insets show the time-dependent absorbance changes at 438 nm (the most pronounced shift), fitted using single exponential equations to determine rate constants (red trace). Dependence of rate constant as a function of gas concentration on (B) O2 and (D) ^•NO binding to ferrous RufO alone (blue) and peptide-bound RufO (red). Second-order rate constants were determined through linear fitting. TEXT PRINTED IN THE PICTURE: (A) + O2: kobs = 74.3 s^-1 | (B) RufO alone: k1 = 3.55 μM^-1 s^-1 | (B) peptide-bound: k1 = 3.83 μM^-1 s^-1 | (C) + •NO: kobs = 107.4 s^-1 | (D) RufO alone: k1 = 4.12 μM^-1 s^-1 | (D) peptide-bound: k1 = 2.35 μM^-1 s^-1
Stopped-flow spectroscopic data were collected using an Applied Photophysics SX20 stopped-flow system equipped with a photodiode array detector. The system was maintained in an anaerobic chamber (O2 < 1 ppm) and all sample preparation was done anaerobically. Measurements were performed at 4 °C. All samples were prepared in a buffer containing 50 mM Tris-HCl and 100 mM NaCl, pH 8.0. RufO was prereduced with a minimal amount of sodium dithionite. The final mixed concentrations of RufO and MRYLH (where applicable) were 3.3 and 24 μM, respectively. Solutions of varying O2 concentrations were prepared by diluting air-saturated buffer with anaerobic buffer. The concentrations of O2 in the air-saturated buffer were measured with an Oxygraph+ oxygen electrode (Hansatech). To generate ^•NO-containing solutions, 0.5 mM DEA NONOate (≥98%, Cayman Chemical) was incubated in anaerobic buffer for 4 h to ensure complete ^•NO release. The ^•NO concentrations were quantified based on a hemoglobin assay, and further dilutions were made with anaerobic buffer immediately prior to mixing. Experimental data were analyzed by the ProK software package from Applied Photophysics. The second-order rate constants were obtained from linear fitting, with the resulting equations: y = 3.55x + 54.4 for the mixing of RufO with O2, y = 3.83x + 6.5 for the ES complex with O2, y = 4.12x −158.0 for RufO with ^•NO, and y = 2.35x – 58.9 for the ES complex with ^•NO.
Figure S9. Transient kinetics of ferrous RufO alone binding to O2 and •NO Spectral changes following the rapid mixing of 3.3 μM ferrous RufO with (A) 18 μM O 2 and […] superoxo intermediate and (B) a ferrous-nitrosyl complex. Insets show the time-dependent absorbance changes at 438 nm (the most pronounced shift), fitted using first-order exponential equations to determine rate constants (red trace).
as §7

[8] = target: T3, MRYLH pentapeptide (RufO substrate) (Streptomyces atratus); test: ITC
T3 chain: MRYLH

For `CCCC[C@H](N)C(=O)N[C@@H](CCCNC(=N)N)C(=O)N[C@@H](Cc1ccc(O)cc1)C(=O)N[C@@H](CC(C)C)C(=O)N[C@@H](Cc1c[nH]cn1)C(=O)O` [Nle-RYLH] (H-[Nle]RYLH-OH), the Kd [1] was 1600 nM, the “conversion of original low-spin species to new low-spin species” value [2] was 84% and the “conversion rate (normalized)” value [3] was 100%.

With `N[C@@H](Cc1c[nH]c2ccccc12)C(=O)O` [Trp, L-tryptophan] the “ΔS, in words” value [4] was “negative ΔS”, the Kd ([4]; single binding site) was 16000 nM and the ΔH ([4]; single binding site, exothermic) was -14.6 kcal/mol. For the same molecule, the “Soret band position on substrate binding” value [5] was 390 nm, the “low-spin ν10 (1640 cm^–1), in words” value [6] was “disappearance” and the “ν4 on Trp binding” value ([6]; initially 1374 cm^–1) was 1373 cm^–1. The “ν3 on Trp binding” value ([6]; initially 1504 cm^–1, six- to five-coordinate high-spin conversion) was 1488 cm^–1 and the “ν2 on Trp binding” value ([6]; initially 1588 cm^–1) was 1570 cm^–1.

For MRYLH [MRYLH], the Kd [1] was 780 ± 300 nM and the “conversion of original low-spin species to new low-spin species” value [2] was 84%.

In the case of nitric oxide [•NO], the kobs ([7]; MRYLH-bound ferrous RufO 3.3 μM, 70 μM •NO, 438 nm, single exponential) is reported as 107.4 s⁻¹, the “association rate constant k1” value ([7]; MRYLH-bound, 24 μM MRYLH) is reported as 2.35 μM^–1 s^–1 and the “association rate constant k1” value ([7]; RufO alone) is reported as 4.12 μM^–1 s^–1. The “•NO concentration below which nitrosyl complex not detectable” value ([7]; RufO alone) was less than 50 µM and the “•NO concentration below which nitrosyl complex not detectable” value ([7]; peptide-bound RufO) was less than 70 µM.

B1: RufO (protein)
chain: MTVSPAPEHTDPLFSPLDPAVLADPYPVYRRLRETHPVYWHAGLDSWLMTRHADCTAILRDPGRFSTDFRKIDIPTPPTLLSLQTLDPPDQTPLRHLALDAVRAQDLDALRKELTLFADQLLDELADRESFDFIHDYADVFTLRAITRFIGVEPPETDEAFARFNDDLDHSMDAQLDPDAEEPGLRARAHFNDLVRSWLGDPGPHGVLPDVVRLLPGSGVEADDVLVNSVRAFFHAGFEVPSRFLGNALAALLATPGAWEQLVRGDVGLDTAVEELIRYVGPVQALARACLQDTELGGMAVKEGQVVTALIGAANRDPDQFPDPETLRLDRKPNNHLGFGRGAHSCLGLNVARIEAHVTLGALLRHPGVRSAGEPVVRPNGTLRGLSRLPLTLG
B1 was tested, and the Kd [8] was 780 nM.
